pIC50: −log10 of the molar value. Blank lines part the entries; values can stand above or below the compound they belong to.
Assays:
[1] = biological target: T1, Lysine-specific demethylase 5A (Homo sapiens, UniProt P29375); experiment: Inhibition of full-length KDM5A ([…])(unknown origin) using ARTK(me3)-QTARKSTGGKAPRKQLA-GGK(biotin) as substrate preincubated for 10 mins followed by substrate addition measured after 45 mins by LANCE Ultra assay
[2] = biological target: Lysine-specific demethylase 6B (Homo sapiens, UniProt O15054); experiment: Inhibition of KDM6B (1043 to end residues) (unknown origin) using ATKAARK(me3)-SAPATGGVKKPHRYRPG-GK(biotin) as substrate preincubated for 10 mins followed by substrate addition measured after 45 mins by LANCE Ultra assay
Lysine-specific demethylase 6B, sequence (O15054 whole entry, the tested form may be a part): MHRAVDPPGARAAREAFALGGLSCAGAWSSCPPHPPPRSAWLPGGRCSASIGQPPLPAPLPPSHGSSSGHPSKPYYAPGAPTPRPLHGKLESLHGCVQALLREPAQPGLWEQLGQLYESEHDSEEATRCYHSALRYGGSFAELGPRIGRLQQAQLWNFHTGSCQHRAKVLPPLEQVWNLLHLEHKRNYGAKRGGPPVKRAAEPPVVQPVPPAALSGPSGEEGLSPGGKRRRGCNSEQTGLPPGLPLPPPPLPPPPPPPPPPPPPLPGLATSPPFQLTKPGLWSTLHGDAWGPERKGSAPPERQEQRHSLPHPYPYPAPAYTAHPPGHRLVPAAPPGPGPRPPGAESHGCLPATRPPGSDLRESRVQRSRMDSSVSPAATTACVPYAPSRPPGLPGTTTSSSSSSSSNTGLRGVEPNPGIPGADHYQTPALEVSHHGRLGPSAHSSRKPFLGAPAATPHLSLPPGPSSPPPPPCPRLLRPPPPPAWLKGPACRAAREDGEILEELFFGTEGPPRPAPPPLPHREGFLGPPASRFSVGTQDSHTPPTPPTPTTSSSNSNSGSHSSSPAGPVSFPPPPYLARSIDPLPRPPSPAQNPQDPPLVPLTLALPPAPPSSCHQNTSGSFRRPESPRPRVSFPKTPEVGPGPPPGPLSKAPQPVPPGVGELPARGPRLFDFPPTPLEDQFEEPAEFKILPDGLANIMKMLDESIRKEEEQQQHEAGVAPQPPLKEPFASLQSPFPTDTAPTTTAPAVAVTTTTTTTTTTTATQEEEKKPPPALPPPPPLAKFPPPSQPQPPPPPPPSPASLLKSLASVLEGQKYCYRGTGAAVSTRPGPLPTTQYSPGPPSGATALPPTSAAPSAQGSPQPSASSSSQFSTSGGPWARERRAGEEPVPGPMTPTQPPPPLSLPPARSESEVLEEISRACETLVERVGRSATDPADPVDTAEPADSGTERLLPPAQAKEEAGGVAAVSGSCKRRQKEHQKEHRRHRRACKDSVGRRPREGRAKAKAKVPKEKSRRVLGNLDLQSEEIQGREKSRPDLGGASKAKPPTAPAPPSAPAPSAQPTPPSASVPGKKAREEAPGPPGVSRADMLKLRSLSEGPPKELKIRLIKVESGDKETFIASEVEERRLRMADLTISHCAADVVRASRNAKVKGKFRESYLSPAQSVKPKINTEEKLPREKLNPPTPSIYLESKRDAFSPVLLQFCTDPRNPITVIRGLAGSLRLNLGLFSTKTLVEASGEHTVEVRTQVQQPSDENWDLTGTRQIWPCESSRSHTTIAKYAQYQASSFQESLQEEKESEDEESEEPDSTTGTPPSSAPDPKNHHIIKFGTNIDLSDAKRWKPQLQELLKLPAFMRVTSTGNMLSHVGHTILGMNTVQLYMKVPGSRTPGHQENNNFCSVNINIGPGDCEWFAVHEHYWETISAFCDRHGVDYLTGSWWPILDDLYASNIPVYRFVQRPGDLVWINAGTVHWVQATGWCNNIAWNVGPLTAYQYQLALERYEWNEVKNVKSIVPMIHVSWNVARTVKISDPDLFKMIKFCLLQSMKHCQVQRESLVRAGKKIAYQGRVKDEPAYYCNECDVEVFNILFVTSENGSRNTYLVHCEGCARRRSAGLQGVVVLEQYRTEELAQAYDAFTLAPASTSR

[3] = biological target: T2, Lysine-specific demethylase 4A (Homo sapiens, UniProt O75164); experiment: Inhibition of KDM4A (1 to 359 residues) (unknown origin) using ARTKQTARK(me3)-STGGKAPRKQLA-GGK(biotin) peptide as substrate preincubated for 10 mins followed by substrate addition measured after 45 mins by LANCE Ultra assay
T2 sequence (O75164 whole entry): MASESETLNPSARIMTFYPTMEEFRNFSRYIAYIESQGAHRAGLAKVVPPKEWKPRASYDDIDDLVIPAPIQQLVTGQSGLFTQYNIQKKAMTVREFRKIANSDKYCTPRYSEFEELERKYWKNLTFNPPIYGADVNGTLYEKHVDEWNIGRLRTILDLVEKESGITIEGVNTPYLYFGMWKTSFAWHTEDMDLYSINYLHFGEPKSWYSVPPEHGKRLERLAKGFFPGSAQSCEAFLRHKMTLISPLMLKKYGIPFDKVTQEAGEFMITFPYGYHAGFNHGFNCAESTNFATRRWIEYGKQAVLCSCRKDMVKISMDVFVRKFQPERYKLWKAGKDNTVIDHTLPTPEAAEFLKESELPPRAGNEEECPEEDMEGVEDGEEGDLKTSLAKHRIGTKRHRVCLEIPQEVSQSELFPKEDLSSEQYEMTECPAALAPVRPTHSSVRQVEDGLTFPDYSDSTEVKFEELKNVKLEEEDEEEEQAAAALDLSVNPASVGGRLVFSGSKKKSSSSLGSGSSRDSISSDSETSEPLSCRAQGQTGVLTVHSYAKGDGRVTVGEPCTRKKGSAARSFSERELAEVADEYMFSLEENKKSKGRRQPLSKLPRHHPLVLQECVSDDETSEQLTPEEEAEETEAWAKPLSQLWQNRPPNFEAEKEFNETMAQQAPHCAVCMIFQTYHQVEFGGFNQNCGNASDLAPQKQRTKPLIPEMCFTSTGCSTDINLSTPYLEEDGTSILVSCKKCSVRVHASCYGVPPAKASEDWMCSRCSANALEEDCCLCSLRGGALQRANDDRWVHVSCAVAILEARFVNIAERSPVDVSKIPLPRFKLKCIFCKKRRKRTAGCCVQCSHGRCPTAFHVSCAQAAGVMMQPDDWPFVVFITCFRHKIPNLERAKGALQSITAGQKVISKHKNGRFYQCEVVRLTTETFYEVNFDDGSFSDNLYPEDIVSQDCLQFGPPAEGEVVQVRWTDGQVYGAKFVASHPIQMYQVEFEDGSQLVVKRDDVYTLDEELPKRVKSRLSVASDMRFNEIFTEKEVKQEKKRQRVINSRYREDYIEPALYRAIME

[4] = biological target: Lysine-specific demethylase 5C (Homo sapiens, UniProt P41229); experiment: Inhibition of N-terminal FLAG/His-tagged full-length human KDM5C (2 to 1560 residues) expressed in baculovirus infected Sf9 insect cells using peptide substrate incubated for 2 hrs by Alpha Screen assay
[5] = biological target: T2, Lysine-specific demethylase 4A; experiment: Inhibition of KDM4A (unknown origin) incubated for 30 mins by fluorescence based assay
[6] = biological target: T1, Lysine-specific demethylase 5A; experiment: Inhibition of full-length human KDM5A expressed in recombinant baculovirus expression system using […] peptide as substrate incubated for 30 to 45 mins by TR-FRET assay; design: species or system Sf9
[7] = biological target: Lysine-specific demethylase 2B (Homo sapiens, UniProt Q8NHM5); experiment: Inhibition of KDM2B (unknown origin)
[8] = biological target: Lysine-specific demethylase 2A (Homo sapiens, UniProt Q9Y2K7); experiment: Inhibition of KDM2A (unknown origin)
Lysine-specific demethylase 2A, sequence (Q9Y2K7 whole entry): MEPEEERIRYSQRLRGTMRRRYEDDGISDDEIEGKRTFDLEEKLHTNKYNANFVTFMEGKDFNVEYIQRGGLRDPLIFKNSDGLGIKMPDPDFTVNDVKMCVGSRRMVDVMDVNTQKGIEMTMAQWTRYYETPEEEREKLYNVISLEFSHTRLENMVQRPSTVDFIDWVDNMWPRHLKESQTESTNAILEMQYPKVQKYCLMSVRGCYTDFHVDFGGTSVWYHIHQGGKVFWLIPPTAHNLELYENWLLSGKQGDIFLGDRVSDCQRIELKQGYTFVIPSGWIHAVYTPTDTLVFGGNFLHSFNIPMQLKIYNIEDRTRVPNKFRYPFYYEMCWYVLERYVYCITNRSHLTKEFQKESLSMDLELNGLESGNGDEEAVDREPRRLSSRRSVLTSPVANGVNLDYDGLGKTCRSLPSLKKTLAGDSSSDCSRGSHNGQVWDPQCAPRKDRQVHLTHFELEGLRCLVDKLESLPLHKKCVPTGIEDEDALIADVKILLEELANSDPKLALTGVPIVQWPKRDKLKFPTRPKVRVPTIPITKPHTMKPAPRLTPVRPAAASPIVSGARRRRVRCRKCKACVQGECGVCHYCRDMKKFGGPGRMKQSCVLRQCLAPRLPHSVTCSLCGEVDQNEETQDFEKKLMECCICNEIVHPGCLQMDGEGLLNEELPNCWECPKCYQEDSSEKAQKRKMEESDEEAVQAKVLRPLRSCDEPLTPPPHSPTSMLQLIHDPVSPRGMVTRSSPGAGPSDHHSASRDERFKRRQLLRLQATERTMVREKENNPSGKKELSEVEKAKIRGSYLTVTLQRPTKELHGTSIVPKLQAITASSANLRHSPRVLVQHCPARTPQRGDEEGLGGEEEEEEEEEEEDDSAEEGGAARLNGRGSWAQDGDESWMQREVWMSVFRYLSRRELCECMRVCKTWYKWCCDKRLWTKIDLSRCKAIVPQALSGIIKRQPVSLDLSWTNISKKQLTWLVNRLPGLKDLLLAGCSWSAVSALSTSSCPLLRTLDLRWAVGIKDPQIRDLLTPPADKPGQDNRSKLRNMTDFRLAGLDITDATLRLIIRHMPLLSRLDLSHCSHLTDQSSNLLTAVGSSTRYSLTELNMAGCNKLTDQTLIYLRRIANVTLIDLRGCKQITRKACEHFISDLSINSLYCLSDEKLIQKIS

T1 sequence (P29375 whole entry): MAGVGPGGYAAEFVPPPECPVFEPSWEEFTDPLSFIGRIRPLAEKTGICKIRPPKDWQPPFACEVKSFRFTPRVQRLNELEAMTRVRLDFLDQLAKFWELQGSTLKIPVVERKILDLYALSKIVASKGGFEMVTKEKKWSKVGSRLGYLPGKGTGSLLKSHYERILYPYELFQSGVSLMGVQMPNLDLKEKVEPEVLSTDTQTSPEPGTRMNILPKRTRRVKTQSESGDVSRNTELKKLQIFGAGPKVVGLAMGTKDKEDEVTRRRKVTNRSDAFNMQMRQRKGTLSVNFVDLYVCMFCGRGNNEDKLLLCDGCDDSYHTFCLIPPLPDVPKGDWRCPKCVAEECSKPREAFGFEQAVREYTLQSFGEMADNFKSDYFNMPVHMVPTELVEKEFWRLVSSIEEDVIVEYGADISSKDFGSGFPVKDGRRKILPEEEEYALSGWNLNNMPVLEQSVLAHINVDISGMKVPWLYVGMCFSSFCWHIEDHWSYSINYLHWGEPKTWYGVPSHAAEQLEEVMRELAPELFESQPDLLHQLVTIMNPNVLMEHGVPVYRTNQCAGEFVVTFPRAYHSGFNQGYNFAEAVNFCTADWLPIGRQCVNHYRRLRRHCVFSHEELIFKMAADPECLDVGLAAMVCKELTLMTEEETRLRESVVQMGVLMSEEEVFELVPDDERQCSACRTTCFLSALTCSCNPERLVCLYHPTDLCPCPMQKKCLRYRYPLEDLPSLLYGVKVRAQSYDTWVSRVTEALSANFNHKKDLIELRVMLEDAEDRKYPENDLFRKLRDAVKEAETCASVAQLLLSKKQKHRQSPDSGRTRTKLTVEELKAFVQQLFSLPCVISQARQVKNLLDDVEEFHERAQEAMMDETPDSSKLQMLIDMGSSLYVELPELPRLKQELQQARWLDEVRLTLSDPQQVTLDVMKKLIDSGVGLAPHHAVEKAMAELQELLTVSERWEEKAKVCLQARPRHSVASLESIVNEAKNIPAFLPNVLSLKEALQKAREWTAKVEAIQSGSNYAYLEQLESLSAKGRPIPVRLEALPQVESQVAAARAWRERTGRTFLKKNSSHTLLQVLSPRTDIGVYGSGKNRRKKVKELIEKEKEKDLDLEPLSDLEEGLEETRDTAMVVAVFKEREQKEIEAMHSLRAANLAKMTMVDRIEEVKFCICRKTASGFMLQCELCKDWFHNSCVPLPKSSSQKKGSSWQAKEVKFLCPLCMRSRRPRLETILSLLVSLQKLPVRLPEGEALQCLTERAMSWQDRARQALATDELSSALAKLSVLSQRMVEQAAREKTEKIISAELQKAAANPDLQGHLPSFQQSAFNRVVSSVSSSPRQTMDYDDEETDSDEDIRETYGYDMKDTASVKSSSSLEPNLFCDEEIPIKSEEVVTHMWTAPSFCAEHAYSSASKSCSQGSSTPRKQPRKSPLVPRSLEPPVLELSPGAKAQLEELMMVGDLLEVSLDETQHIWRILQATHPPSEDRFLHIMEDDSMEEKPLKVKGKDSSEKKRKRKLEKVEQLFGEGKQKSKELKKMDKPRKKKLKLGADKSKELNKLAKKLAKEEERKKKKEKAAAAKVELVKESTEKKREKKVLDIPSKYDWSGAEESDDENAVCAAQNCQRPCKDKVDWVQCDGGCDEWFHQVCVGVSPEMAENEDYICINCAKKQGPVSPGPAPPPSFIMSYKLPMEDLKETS

- pIC50 [2]: 5.40
- pIC50 [3]: 5.32
Compound: O=C(O)c1ccc(-n2nc(-c3ccccc3O)nc2-c2ccccc2O)cc1 [DEFERASIROX]
- pIC50 [1]: 5.30

- pIC50 [4]: 8.06
Compound: CCCCCCN(C)CCn1cc(-c2cc(C(=O)O)ccn2)nn1

Compound: Cc1cc(O[C@H](C)C(=O)NCC(=O)NCC(=O)O)c2c3c(c(=O)oc2c1)CCC3
- pIC50 [5]: < 4.00
- pIC50 [6]: 7.62

Compound: Cc1c(O)c(=O)ccn1C [DEFERIPRONE]
- pIC50 [7]: 5.09
- pIC50 [8]: 5.17

Reference: ChEMBL document CHEMBL5126529, “Drug discovery of histone lysine demethylases (KDMs) inhibitors (progress from 2018 to present)” (Eur J Med Chem, 2022)
